Where a name gives a salt, the structure may show the parent alone.
Legend:
Assay type in all cases: cell-based
Settings in all cases: ratio to NECA
adenosine 2a receptor = target: T1, adenosine 2a receptor (Homo sapiens, UniProt P29274); experiment: Agonist activity, CHO cells transfected with human adenosine receptor and CRE-SPAP reporter; basal cAMP (A2a)
T1 construct: expressed in transfected cells; host or cells: CHO cells
Procedure: (§1) (1) Agonist activity against adenosine 2a, adenosine 1 and adenosine 3 receptor subtypes.
(§2) Agonist selectivity of compounds against other human adenosine receptors is determined using Chinese hamster ovary (CHO) cells transfected with the gene for the relevant human adenosine receptor following a method based on that of Castanon and Spevak, 1994. The CHO cells are also transfected with cyclic AMP response elements promoting the gene for secreted placental alkaline phosphatase (SPAP) (Wood, 1995). The effect of test compounds may be determined by their effects on basal levels of CAMP (A2a) or on forskolin-enhanced cAMP (A1 and A3) as reflected by changes in levels of SPAP. EC50 values for compounds may then be determined as a ratio to that of the non-selective agonist N-ethyl carboxamide adenosine (NECA).

adenosine 3 receptor = target: T2, adenosine 3 receptor (Homo sapiens, UniProt P0DMS8); experiment: Agonist activity, CHO cells transfected with human adenosine receptor and CRE-SPAP reporter; forskolin-enhanced cAMP (A3)
T2 construct: expressed in transfected cells; host or cells: CHO cells
T2 sequence (P0DMS8 1-318): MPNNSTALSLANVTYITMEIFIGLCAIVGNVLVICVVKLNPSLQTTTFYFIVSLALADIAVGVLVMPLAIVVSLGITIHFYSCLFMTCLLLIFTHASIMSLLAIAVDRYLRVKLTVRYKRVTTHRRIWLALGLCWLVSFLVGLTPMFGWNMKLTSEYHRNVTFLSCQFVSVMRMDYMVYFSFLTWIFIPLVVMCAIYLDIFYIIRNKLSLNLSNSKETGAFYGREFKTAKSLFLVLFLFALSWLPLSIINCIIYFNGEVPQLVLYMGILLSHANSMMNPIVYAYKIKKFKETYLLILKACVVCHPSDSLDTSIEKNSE
Procedure: as §1, §2

adenosine 1 receptor = target: T3, adenosine 1 receptor (Homo sapiens, UniProt P30542); experiment: Agonist activity, CHO cells transfected with human adenosine receptor and CRE-SPAP reporter; forskolin-enhanced cAMP (A1)
T3 construct: expressed in transfected cells; host or cells: CHO cells
T3 sequence (P30542 1-326): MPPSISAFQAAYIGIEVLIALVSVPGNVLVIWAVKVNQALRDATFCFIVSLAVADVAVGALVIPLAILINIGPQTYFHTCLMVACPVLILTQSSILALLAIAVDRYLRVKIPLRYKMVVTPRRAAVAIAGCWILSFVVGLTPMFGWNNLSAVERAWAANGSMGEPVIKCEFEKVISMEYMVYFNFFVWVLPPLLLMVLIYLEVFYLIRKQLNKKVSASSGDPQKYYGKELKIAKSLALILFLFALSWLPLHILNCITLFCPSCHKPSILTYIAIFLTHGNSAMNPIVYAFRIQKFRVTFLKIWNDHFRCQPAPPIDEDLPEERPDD
Procedure: as §1, §2

[1] = * data are minimum values since preparation was found, after testing, to contain an inactive impurity

T1 sequence (P29274 whole entry): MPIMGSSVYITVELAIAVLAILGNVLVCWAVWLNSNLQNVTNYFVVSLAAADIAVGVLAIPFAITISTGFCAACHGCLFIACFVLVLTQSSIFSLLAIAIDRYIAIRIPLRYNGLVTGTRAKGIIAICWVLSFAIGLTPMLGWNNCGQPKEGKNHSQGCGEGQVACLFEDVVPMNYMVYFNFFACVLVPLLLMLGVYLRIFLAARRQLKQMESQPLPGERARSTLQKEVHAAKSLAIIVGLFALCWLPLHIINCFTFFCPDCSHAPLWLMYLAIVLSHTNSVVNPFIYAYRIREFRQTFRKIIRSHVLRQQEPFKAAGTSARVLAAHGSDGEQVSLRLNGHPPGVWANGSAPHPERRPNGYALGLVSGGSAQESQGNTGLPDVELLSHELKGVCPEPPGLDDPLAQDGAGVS

| A2a, EC50 as a ratio of that of NECA (adenosine 2a receptor; [1]) | A3, EC50 as a ratio of that of NECA (adenosine 3 receptor; [1]) | A1, EC50 as a ratio of that of NECA (adenosine 1 receptor; [1]) | Compound | A2a, EC50 as a ratio of that of NECA (adenosine 2a receptor; CHO cells, SPAP readout) | A3, EC50 as a ratio of that of NECA (adenosine 3 receptor; CHO cells, SPAP readout) | A1, EC50 as a ratio of that of NECA (adenosine 1 receptor; CHO cells, SPAP readout) |
| --- | --- | --- | --- | --- | --- | --- |
| 7.66 | >269 | 3449.6 | CCc1noc(C2OC(n3cnc4c(N)nc(NCCc5cn(C)cn5)nc43)C(O)C2O)n1 [Example 10, (2R,3R,4S,5S)-2-{6-Amino-2-[2-(1-methyl-1H-imidazol-4-yl)-ethylamino]-purin-9-yl}-5-(3-ethyl-1,2,4]oxadiazol-5-yl)-tetrahydro-furan-3,4-diol diformate] | – | – | – |
| 19.54 | >215 | 1460.7 | Cc1noc(C2OC(n3cnc4c(N)nc(NCCc5ccccn5)nc43)C(O)C2O)n1.O=CO.O=CO (stereo not drawn) [Example 30] | – | – | – |
| 10.5 | >284 | 263.14 | CCc1noc(C2OC(n3cnc4c(NC(CC)CC)nc(NC5CCNC5)nc43)C(O)C2O)n1 [Example 27, (2S,3S,4R,5R)-2-(3-Ethyl-[1,2,4]oxadiazol-5-yl)-5-[6-(1-ethyl-propylamino)-2-(pyrrolidin-3R-ylamino)-purin-9-yl]-tetrahydro-furan-3,4-diol formate] | – | – | – |

More lines, now with the values behind:

| Compound | A2a, EC50 as a ratio of that of NECA (adenosine 2a receptor; [1]) | A3, EC50 as a ratio of that of NECA (adenosine 3 receptor; [1]) | A1, EC50 as a ratio of that of NECA (adenosine 1 receptor; [1]) | A2a, EC50 as a ratio of that of NECA (adenosine 2a receptor; CHO cells, SPAP readout) | A3, EC50 as a ratio of that of NECA (adenosine 3 receptor; CHO cells, SPAP readout) | A1, EC50 as a ratio of that of NECA (adenosine 1 receptor; CHO cells, SPAP readout) |
| --- | --- | --- | --- | --- | --- | --- |
| CCC(CC)Nc1nc(N[C@H]2CC[C@H](N)CC2)nc2c1ncn2[C@@H]1O[C@H](c2nc(C)no2)[C@@H](O)[C@H]1O.O=CO [Example 16, (2R,3R,4S,5S)-2-[2-(trans-4-Amino-cyclohexylamino)-6-(1-ethyl-propylamino)-purin-9-yl]-5-(3-methyl-[1,2,4]oxadiazol-5-yl)tetrahydro-furan-3,4-diol formate] | 11.87 | >362 | >6244 | – | – | – |
| CCc1noc(C2OC(n3cnc4c(N)nc(NCCc5ccccn5)nc43)C(O)C2O)n1.O=CO.O=CO (stereo not drawn) [Example 8] | 14.05 | >215 | >=3865 | – | – | – |
| CCc1noc(C2OC(n3cnc4c(NCCC5CCCCC5)nc(NCCc5cn(C)cn5)nc43)C(O)C2O)n1.O=CO.O=CO [Example 47, (2R,3R,4S,5S)-2-{6-(2-cyclohexylethylamino)-2-[2-(1-methyl-1H-imidazol4-yl)ethylamino]-purin-9-yl}-5-(3-ethyl-[1,2,4]oxadiazol-5-yl)-tetrahydro-furan-3,4-diol diformate] | – | – | – | 6.93 | >165 | 4993.28 |
| CCc1noc([C@H]2O[C@@H](n3cnc4c(NCC(c5ccccc5)c5ccccc5)nc(NC5CC6CCC5C6)nc43)[C@H](O)[C@@H]2O)n1.O=CO (stereo partly drawn) [Example 41, (2R,3R,4S,5S)-2-{2-(Bicyclo[2.2.1]hept-2-ylamino)-6-(2,2-diphenyl-ethylamino)-purin-9-yl}-5-(3-ethyl-[1,2,4]oxadiazol-5-yl)-tetrahydro-furan-3,4-diol formate] | – | – | – | 23.93 | >130 | 2033.2 |
| CCC(CC)Nc1nc(NCCN2CCCCC2)nc2c1ncn2[C@@H]1O[C@H](c2nc(C)no2)[C@@H](O)[C@H]1O.O=CO [Example 18, (2R,3R,4S,5S)-2-[6-(1-Ethyl-propylamino)-2-(2-piperidin-1-yl-ethylamino)-purin-9-yl]-5-(3-methyl-[1,2,4]oxadiazol-5-yl)-tetrahydro-furan-3,4-diol formate] | 8.16 | >314 | >6244 | – | – | – |
| CCc1noc([C@H]2O[C@@H](n3cnc4c(NCC(c5ccccc5)c5ccccc5)nc(NCCc5cn(C)cn5)nc43)[C@H](O)[C@@H]2O)n1.O=C(O)C(F)F.O=C(O)C(F)F [Example 2] | – | – | – | 0.64 | >197 | 1823 |
| Cc1noc([C@H]2O[C@@H](n3cnc4c(N)nc(NCCc5ccccc5)nc43)[C@H](O)[C@@H]2O)n1.O=C(O)C(F)(F)F [Example 15, (2R,3R,4S,5S)-2-(6-Amino-2-phenethylamino-purin-9-yl)-5-(3-methyl-[1,2,4]oxadiazol-5-yl)-tetrahydro-furan-3,4-diol trifluoroacetate] | – | – | – | 2.29 | >130 | >5511 |
| (2S,3S,4R,5R)-2-(3-Cyclopropyl-[1,2,4]oxadiazol-5-yl)-5-[6-(1-ethyl-propylamino)-2-(2-(1-methyl-1H-imidazol-4-yl)-ethylamino)-purin-9-yl]-tetrahydro-furan-3,4-diol diformate [Example 38] | – | – | – | 2.02 | >87 | 670.04 |
| CCc1noc([C@H]2O[C@@H](n3cnc4c(NC(CC)CC)nc(N[C@H]5CC[C@H](N)CC5)nc43)[C@H](O)[C@@H]2O)n1.O=CO [Example 29, (2R,3R,4S,5S)-2-[2-(trans-4-Amino-cyclohexylamino)-6-(1-ethyl-propylamino)-purin-9-yl]-5-(3-ethyl-[1,2,4]oxadiazol-5-yl)-tetrahydro-furan-3,4-diol formate] | 8.92 | >117 | 989.5 | – | – | – |
